Results as given in patent US20250352524A1, “PREVENTION OF METASTATIC OUTGROWTH USING TEAD INHIBITORS” (Georgetown University, priority 2024, published 2025).

Tested on: 4T1 spheres
Assay: 3D sphere co-culture assay, 4T1 spheres with T-cells and/or macrophages
Assay type: cell-based, mouse
Settings: for cleaved caspase-3 in 4T1 cells: 24 hours
Protocol: T-cells were isolated from the spleens of naïve mice, activated by CD3/CD28, and treated with either 1 μM iTEAD or vehicle. Peritoneal macrophages were isolated from the peritoneal lavage of naïve mice after attachment on culture dishes and treated with either 1 μM iTEAD or vehicle. The immune cells were mixed with tumor cells that were aggregated into spheres in u-shaped molds for 24 hours (FIG. 7).
To investigate whether the effect of iTEAD treatment on macrophages can enhance their crosstalk with T-cells in the lung microenvironment, peritoneal macrophages+/−iTEAD were first isolated and characterized as a model of resident macrophages for ex vivo experiments (FIG. 14, Panel A). It was observed that treatment with VT107 decreased gene expression of M2-like and fibrosis regulators, Aldh1a1 and Cc117 (Chen et al., 2020), as well as TEAD4 and its downstream target gene Ankrd1. […] The iTEAD pretreated peritoneal macrophages and untreated T-cells isolated from the spleen of tumor naïve mice (FIG. 14, Panel A) were then mixed for 5 hours before collecting the conditioned media for analysis. […] Next, these immune cell mixes were added to 4T1 spheres that were embedded into matrix. […] This effect was reversed by an IL12 neutralizing antibody. No change in cleaved caspase-3 in 4T1 cells in the presence of VT107-treated T-cells or macrophages alone, was detected at 24 hours (FIG. 14, Panels C and D). 4T1 cells were then plated and allowed to attach on electrode-coated arrays to monitor cancer cell viability before the addition of macrophages+/−iTEAD and T-cells. […] This reversal of T-cell cytotoxicity by IL12 antibodies was not observed in VT107-treated T-cells in the absence of macrophages (FIG. 15, Panel E) indicating a critical role for IL12 in the crosstalk between macrophages and T-cells.
The hippo pathway has been implicated in T-cell development and function (Du et al., 2014; Ueda et al., 2012). For example, YAP expression is essential for tumor immune suppression by Treg cells that attenuates CD8 T-cell immunity (Geng et al., 2017; Ni et al., 2018; Lebid et al., 2020). […] To investigate whether VT107 directly affected T-cells, T-cells treated with VT107 were co-cultured with 4T1 cells in 2D for 72 hours. […] To further confirm T-cell activation upon TEAD activity reduction, we used Jurkat cells, a CD4 positive human lymphoma cell line (Schneider et al., 1977). […] However, here we show the specific effect of TEAD reduction on granzyme gene expression and degranulation that result in the killing of cancer cells.
One thousand 4T1 cells were aggregated in 81-well agarose molds (Microtissues, #Z764019). […] Images were captured using the Olympus BX40 microscope, and DAB signal per sphere was quantified in imageJ and normalized to the number of nuclei. […]

Substance: VT107
- cleaved caspase-3 in 4T1 cells (VT107-treated T-cells or macrophages alone): No change
- cleaved caspase-3 IHC staining of 4T1 spheres (co-culture with T-cells treated with 1 μM VT107, 72 hours): increased
- number of 4T1 cells per sphere (co-culture with T-cells treated with 1 μM VT107, 72 hours vs vehicle): significantly reduced
- cleaved caspase-3 in 4T1 cells (iTEAD-treated macrophages and T-cells, spheres in matrix): elevated signal
